Experimental data taken from paper PMC5218480 (PLoS ONE, 2017).

Tested on: MV-4-11 cells
Experiment: Gene expression microarray analysis (Affymetrix PrimeView) and GSEA
Type: cell-based, human
Parameters: RFU PODN (11730768_x_at) / Fold change /veh PODN (11730768_x_at) / RFU LINC00158 (11744669_a_at) / Fold change /veh LINC00158 (11744669_a_at) / RFU DUSP10 (11751237_a_at) / Fold change /veh DUSP10 (11751237_a_at) / RFU ID3 (11757404_x_at) / Fold change /veh ID3 (11757404_x_at) / RFU PLEKHG5 (11737974_s_at) / Fold change /veh PLEKHG5 (11737974_s_at) / RFU LRRC4B (11730491_at) / Fold change /veh LRRC4B (11730491_at) / RFU GIMAP4 (11747438_a_at) / Fold change /veh GIMAP4 (11747438_a_at) / RFU KRT8 (11758183_x_at) / Fold change /veh KRT8 (11758183_x_at) / RFU CNN1 (11734310_a_at) / Fold change /veh CNN1 (11734310_a_at) / RFU VPS37D (11726825_at) / Fold change /veh VPS37D (11726825_at) / RFU C10orf10 (11716522_x_at) / Fold change /veh C10orf10 (11716522_x_at) / RFU KIR2DL2 /// KIR2DL4 /// KIR2DL5A /// KIR2DL5B /// KIR2DS1 /// KIR2DS2 /// KIR2DS3 /// KIR2DS4 /// KIR3DL3 /// KIR3DL3 /// KIR3DS1 (11738374_at) / Fold change /veh KIR2DL2 /// KIR2DL4 /// KIR2DL5A /// KIR2DL5B /// KIR2DS1 /// KIR2DS2 /// KIR2DS3 /// KIR2DS4 /// KIR3DL3 /// KIR3DL3 /// KIR3DS1 (11738374_at) / RFU C1QL1 (11718748_at) / Fold change /veh C1QL1 (11718748_at) / RFU TMPRSS4 (11747572_a_at) / Fold change /veh TMPRSS4 (11747572_a_at) / RFU HAMP (11756126_x_at) / Fold change /veh HAMP (11756126_x_at) / RFU RNFT2 (11725882_a_at) / Fold change /veh RNFT2 (11725882_a_at) / RFU NR4A2 (11747474_a_at) / Fold change /veh NR4A2 (11747474_a_at) / RFU ABCC12 (11746883_a_at) / Fold change /veh ABCC12 (11746883_a_at) / RFU TMEM136 (11760407_x_at) / Fold change /veh TMEM136 (11760407_x_at) / RFU CLDN22 /// WWC2 (11732394_at) / Fold change /veh CLDN22 /// WWC2 (11732394_at) / RFU HLA-DPB1 (11760878_x_at) / Fold change /veh HLA-DPB1 (11760878_x_at) / RFU SPINT1 (11716480_a_at) / Fold change /veh SPINT1 (11716480_a_at) / RFU GAP43 (11754022_s_at) / Fold change /veh GAP43 (11754022_s_at) / RFU A4GNT (11735810_at) / Fold change /veh A4GNT (11735810_at) / RFU PRB3 (11715151_x_at) / Fold change /veh PRB3 (11715151_x_at) / RFU TUBB4B (11761932_at) / Fold change /veh TUBB4B (11761932_at) / RFU CAPN14 (11732068_a_at) / Fold change /veh CAPN14 (11732068_a_at) / RFU TMCC2 (11721928_a_at) / Fold change /veh TMCC2 (11721928_a_at) / RFU IRGQ (11745062_a_at) / Fold change /veh IRGQ (11745062_a_at) / RFU FAM174B (11720279_a_at) / Fold change /veh FAM174B (11720279_a_at) / RFU TMPRSS4 (11748680_a_at) / Fold change /veh TMPRSS4 (11748680_a_at) / RFU FAM212B (11763350_a_at) / Fold change /veh FAM212B (11763350_a_at) / RFU PLEKHG5 (11743358_a_at) / Fold change /veh PLEKHG5 (11743358_a_at) / RFU ZSCAN30 (11745921_a_at) / Fold change /veh ZSCAN30 (11745921_a_at) / RFU CMKLR1 (11741424_a_at) / Fold change /veh CMKLR1 (11741424_a_at) / RFU LOC101060620 /// MAPK8IP1 (11723275_at) / Fold change /veh LOC101060620 /// MAPK8IP1 (11723275_at) / RFU SPTSSB (11747773_x_at) / Fold change /veh SPTSSB (11747773_x_at) / RFU PRSS12 (11739890_at) / Fold change /veh PRSS12 (11739890_at) / RFU BIN1 (11741810_x_at) / Fold change /veh BIN1 (11741810_x_at) / RFU WNT11 (11732464_a_at) / Fold change /veh WNT11 (11732464_a_at) / RFU C10orf10 (11716521_a_at) / Fold change /veh C10orf10 (11716521_a_at) / RFU C5orf56 (11738089_at) / Fold change /veh C5orf56 (11738089_at) / RFU CYB561 (11721691_x_at) / Fold change /veh CYB561 (11721691_x_at) / RFU ANKRD19P (11752326_a_at) / Fold change /veh ANKRD19P (11752326_a_at) / RFU OR2T12 /// OR2T33 /// OR2T8 (11738714_s_at) / Fold change /veh OR2T12 /// OR2T33 /// OR2T8 (11738714_s_at) / RFU VCAN (11748164_a_at) / Fold change /veh VCAN (11748164_a_at) / RFU JSRP1 (11732532_at) / Fold change /veh JSRP1 (11732532_at) / RFU KRTAP10-11 (11738290_x_at) / Fold change /veh KRTAP10-11 (11738290_x_at) / RFU MYO3A (11730013_a_at) / Fold change /veh MYO3A (11730013_a_at) / RFU EBF3 (11725865_a_at) / Fold change /veh EBF3 (11725865_a_at) / RFU CAMK2N1 (11719241_x_at) / Fold change /veh CAMK2N1 (11719241_x_at) / RFU C5orf56 (11738088_a_at) / Fold change /veh C5orf56 (11738088_a_at) / RFU OLFML3 (11715873_a_at) / Fold change /veh OLFML3 (11715873_a_at) / RFU LOC100653217 /// NTM (11731650_a_at) / Fold change /veh LOC100653217 /// NTM (11731650_a_at) / RFU MAPK11 (11762145_a_at) / Fold change /veh MAPK11 (11762145_a_at) / RFU FIZ1 (11724087_x_at) / Fold change /veh FIZ1 (11724087_x_at) / RFU OASL (11726364_x_at) / Fold change /veh OASL (11726364_x_at) / RFU SOX15 (11748057_x_at) / Fold change /veh SOX15 (11748057_x_at) / RFU CD79A (11719716_a_at) / Fold change /veh CD79A (11719716_a_at) / RFU HIST1H1D (11736915_at) / Fold change /veh HIST1H1D (11736915_at) / RFU CASKIN2 (11723855_a_at) / Fold change /veh CASKIN2 (11723855_a_at) / RFU LOC730098 (11760151_x_at) / Fold change /veh LOC730098 (11760151_x_at) / RFU OR4N2 (11742367_at) / Fold change /veh OR4N2 (11742367_at) / RFU PRRT2 (11749266_a_at) / Fold change /veh PRRT2 (11749266_a_at) / RFU SNX32 (11753110_a_at) / Fold change /veh SNX32 (11753110_a_at) / RFU CDHR5 (11726645_a_at) / Fold change /veh CDHR5 (11726645_a_at) / RFU RCAN1 (11760418_a_at) / Fold change /veh RCAN1 (11760418_a_at) / RFU FAM167A (11723789_a_at) / Fold change /veh FAM167A (11723789_a_at) / RFU FAM26E (11764081_at) / Fold change /veh FAM26E (11764081_at) / RFU ISYNA1 (11749810_s_at) / Fold change /veh ISYNA1 (11749810_s_at) / RFU ACY1 (11761880_at) / Fold change /veh ACY1 (11761880_at) / RFU 11764098_at / Fold change /veh 11764098_at / RFU SAMD14 (11745864_x_at) / Fold change /veh SAMD14 (11745864_x_at) / RFU NPB (11741838_a_at) / Fold change /veh NPB (11741838_a_at) / RFU TMPRSS6 (11731388_a_at) / Fold change /veh TMPRSS6 (11731388_a_at) / RFU KRTAP10-2 (11738614_at) / Fold change /veh KRTAP10-2 (11738614_at) / RFU ARHGAP8 /// PRR5-ARHGAP8 (11727945_x_at) / Fold change /veh ARHGAP8 /// PRR5-ARHGAP8 (11727945_x_at) / RFU KRTAP5-7 /// NADSYN1 (11734609_at) / Fold change /veh KRTAP5-7 /// NADSYN1 (11734609_at) / RFU RASL12 (11751679_a_at) / Fold change /veh RASL12 (11751679_a_at) / RFU CDKN2B (11736163_a_at) / Fold change /veh CDKN2B (11736163_a_at) / RFU PRF1 (11729649_at) / Fold change /veh PRF1 (11729649_at) / RFU, ZNF638 /// ZNF638-IT1 / Fold change vs veh, ZNF638 /// ZNF638-IT1 / RFU, PANK3 / Fold change vs veh, PANK3 / RFU, SH3YL1 / Fold change vs veh, SH3YL1 / RFU, ZEB2 / Fold change vs veh, ZEB2 / RFU, NRIP1 / Fold change vs veh, NRIP1 / RFU, PTTG1IP / Fold change vs veh, PTTG1IP / RFU, CAPN2 / Fold change vs veh, CAPN2 / RFU, MED14 / Fold change vs veh, MED14 / RFU, SNORA58 / Fold change vs veh, SNORA58 / RFU, C1orf63 / Fold change vs veh, C1orf63 / RFU, LRRFIP1 / Fold change vs veh, LRRFIP1 / RFU, NDUFAF7 / Fold change vs veh, NDUFAF7 / RFU, SLC12A2 / Fold change vs veh, SLC12A2 / RFU, IBTK / Fold change vs veh, IBTK / RFU, ESF1 / Fold change vs veh, ESF1 / Fold change vs veh, TMEM50B / RFU, TAOK1 / Fold change vs veh, TAOK1 / RFU, ACBD3 / Fold change vs veh, ACBD3 / RFU, TMA16 / Fold change vs veh, TMA16 / RFU, RWDD3 / Fold change vs veh, RWDD3 / RFU, BCAT1 / Fold change vs veh, BCAT1 / RFU, EDEM3 / Fold change vs veh, EDEM3 / RFU, TMEM33 / Fold change vs veh, TMEM33 / RFU, WDR75 / Fold change vs veh, WDR75 / RFU, AHCTF1 / Fold change vs veh, AHCTF1 / RFU, TFRC / Fold change vs veh, TFRC / RFU, ZDHHC17 / Fold change vs veh, ZDHHC17 / RFU, NOM1 / Fold change vs veh, NOM1 / RFU, ARL8B / Fold change vs veh, ARL8B / RFU, ZBTB11 / Fold change vs veh, ZBTB11 / RFU, TAMM41 / Fold change vs veh, TAMM41 / RFU, KIAA1704 /// LOC100996395 / Fold change vs veh, KIAA1704 /// LOC100996395 / RFU, ING1 / Fold change vs veh, ING1 / RFU, TRMT61B / Fold change vs veh, TRMT61B / RFU, FUBP3 / Fold change vs veh, FUBP3 / RFU, TP53 / Fold change vs veh, TP53 / RFU, TNKS2 / Fold change vs veh, TNKS2 / RFU, ZFP14 / Fold change vs veh, ZFP14 / RFU, ACTR2 / Fold change vs veh, ACTR2 / RFU, PPP3R1 / Fold change vs veh, PPP3R1 / RFU, PIK3R1 / Fold change vs veh, PIK3R1 / RFU, HNRNPA1 / Fold change vs veh, HNRNPA1 / RFU, RNF170 / Fold change vs veh, RNF170 / RFU, ZNF28 / Fold change vs veh, ZNF28 / RFU, RNGTT / Fold change vs veh, RNGTT / RFU, OGT / Fold change vs veh, OGT / RFU, BRD1 / Fold change vs veh, BRD1 / RFU, MARS / Fold change vs veh, MARS / RFU, ZNF655 / Fold change vs veh, ZNF655 / RFU, FAHD1 / Fold change vs veh, FAHD1 / RFU, BDP1 / Fold change vs veh, BDP1 / RFU, LRRCC1 / Fold change vs veh, LRRCC1 / RFU, ARID1A / Fold change vs veh, ARID1A / RFU, ZNF146 / Fold change vs veh, ZNF146 / RFU, ZNF330 / Fold change vs veh, ZNF330 / RFU, GPN3 / Fold change vs veh, GPN3 / RFU, C9orf123 / Fold change vs veh, C9orf123 / RFU, N4BP2L2 / Fold change vs veh, N4BP2L2 / RFU, ARFIP1 / Fold change vs veh, ARFIP1 / RFU, FAM179B / Fold change vs veh, FAM179B / RFU, BCL10 / Fold change vs veh, BCL10 / RFU, UHRF1BP1L / Fold change vs veh, UHRF1BP1L / RFU, BET1 / Fold change vs veh, BET1 / RFU, CNOT2 / Fold change vs veh, CNOT2 / RFU, ZNF268 / Fold change vs veh, ZNF268 / Fold change vs veh, ZNF507 / RFU, DGCR2 / Fold change vs veh, DGCR2 / RFU, WDSUB1 / Fold change vs veh, WDSUB1 / Fold change vs veh, HSP90B1 /// MIR3652 / RFU, ADSS / Fold change vs veh, ADSS / RFU, GK / Fold change vs veh, GK / RFU, ZNF148 / Fold change vs veh, ZNF148 / RFU, TAF9 / Fold change vs veh, TAF9 / RFU, SLC1A5 / Fold change vs veh, SLC1A5 / RFU, SLMO2 / Fold change vs veh, SLMO2 / RFU, ABCC4 / Fold change vs veh, ABCC4 / RFU, LOC101060439 /// RAP1B / Fold change vs veh, LOC101060439 /// RAP1B / RFU, RFX7 / Fold change vs veh, RFX7 / RFU, GTPBP10 / Fold change vs veh, GTPBP10 / RFU, CNEP1R1 / Fold change vs veh, CNEP1R1 / RFU, BIVM-ERCC5 /// ERCC5 / Fold change vs veh, BIVM-ERCC5 /// ERCC5 / RFU, ILF3 / Fold change vs veh, ILF3 / RFU 11762660_at / Fold change /veh 11762660_at / RFU VCAN (11757783_s_at) / Fold change /veh VCAN (11757783_s_at) / RFU DDX43 (11728927_at) / Fold change /veh DDX43 (11728927_at) / RFU KRT8 (11758188_x_at) / Fold change /veh KRT8 (11758188_x_at) / RFU NKD1 (11759106_at) / Fold change /veh NKD1 (11759106_at) / RFU SRD5A1 (11742802_a_at) / Fold change /veh SRD5A1 (11742802_a_at) / RFU TPSAB1 /// TPSB2 (11721975_s_at) / Fold change /veh TPSAB1 /// TPSB2 (11721975_s_at) / RFU GSTM3 (11746129_a_at) / Fold change /veh GSTM3 (11746129_a_at) / RFU IL23R (11737362_x_at) / Fold change /veh IL23R (11737362_x_at) / RFU TMEM51 (11727254_a_at) / Fold change /veh TMEM51 (11727254_a_at) / RFU PIWIL2 (11732686_x_at) / Fold change /veh PIWIL2 (11732686_x_at) / RFU ORM1 (11744905_x_at) / Fold change /veh ORM1 (11744905_x_at) / RFU CCDC152 (11743942_at) / Fold change /veh CCDC152 (11743942_at) / RFU ECM1 (11717891_a_at) / Fold change /veh ECM1 (11717891_a_at) / RFU IL23R (11748794_a_at) / Fold change /veh IL23R (11748794_a_at) / RFU TNFAIP8L3 (11732012_x_at) / Fold change /veh TNFAIP8L3 (11732012_x_at) / RFU MBOAT4 (11741988_at) / Fold change /veh MBOAT4 (11741988_at) / RFU 11764193_at / Fold change /veh 11764193_at / RFU TMEM53 (11763286_at) / Fold change /veh TMEM53 (11763286_at) / RFU MAGEB2 (11727129_at) / Fold change /veh MAGEB2 (11727129_at) / RFU TMEM200A (11744735_a_at) / Fold change /veh TMEM200A (11744735_a_at) / RFU CCDC152 (11751479_a_at) / Fold change /veh CCDC152 (11751479_a_at) / RFU FAM211A (11726209_a_at) / Fold change /veh FAM211A (11726209_a_at) / RFU RGS16 (11746705_a_at) / Fold change /veh RGS16 (11746705_a_at) / RFU VCAN (11755009_s_at) / Fold change /veh VCAN (11755009_s_at) / RFU RHOB (11743442_s_at) / Fold change /veh RHOB (11743442_s_at) / RFU RGS16 (11720943_a_at) / Fold change /veh RGS16 (11720943_a_at) / RFU RGS16 (11720944_at) / Fold change /veh RGS16 (11720944_at) / RFU, VPS4B / Fold change vs veh, VPS4B / RFU, CREB1 / Fold change vs veh, CREB1 / RFU, DNAJC13 / Fold change vs veh, DNAJC13 / RFU, GNAQ / Fold change vs veh, GNAQ / RFU, CDK5R1 / Fold change vs veh, CDK5R1 / RFU, ZRANB3 / Fold change vs veh, ZRANB3 / RFU, CUL4A / Fold change vs veh, CUL4A / RFU, CCNY / Fold change vs veh, CCNY / RFU, UFL1 / Fold change vs veh, UFL1 / RFU, COG3 / Fold change vs veh, COG3 / RFU, DIAPH2 / Fold change vs veh, DIAPH2 / RFU, SKA2 / Fold change vs veh, SKA2 / RFU, AFF3 / Fold change vs veh, AFF3 / RFU, LMF1 / Fold change vs veh, LMF1 / RFU, IPO11 / Fold change vs veh, IPO11 / RFU, DFFB / Fold change vs veh, DFFB / RFU, FOXP1 / Fold change vs veh, FOXP1 / RFU, CARD8 / Fold change vs veh, CARD8 / RFU, STRN3 / Fold change vs veh, STRN3 / RFU, ADK / Fold change vs veh, ADK / RFU, RASSF2 / Fold change vs veh, RASSF2 / RFU, WIPF1 / Fold change vs veh, WIPF1 / RFU, LARP1B / Fold change vs veh, LARP1B / RFU, RASA1 / Fold change vs veh, RASA1 / RFU, RB1 / Fold change vs veh, RB1 / RFU, PPFIA1 / Fold change vs veh, PPFIA1 / RFU, MAT2A / Fold change vs veh, MAT2A / RFU, CCT5 / Fold change vs veh, CCT5 / RFU, WDR92 / Fold change vs veh, WDR92 / RFU, CUX1 / Fold change vs veh, CUX1 / RFU, TTC7A / Fold change vs veh, TTC7A / RFU, TMEM135 / Fold change vs veh, TMEM135 / RFU, DEPTOR / Fold change vs veh, DEPTOR / RFU, CPM / Fold change vs veh, CPM / RFU, DNAJB6 / Fold change vs veh, DNAJB6 / RFU, CACNA2D3 / Fold change vs veh, CACNA2D3 / RFU, DTX4 / Fold change vs veh, DTX4 / RFU, TFCP2 / Fold change vs veh, TFCP2 / RFU, GMCL1 /// GMCL1P1 / Fold change vs veh, GMCL1 /// GMCL1P1 / RFU, AEBP2 / Fold change vs veh, AEBP2 / RFU, SNHG1 /// SNORD22 /// SNORD25 /// SNORD26 /// SNORD27 /// SNORD28 /// SNORD29 /// SNORD31 / Fold change vs veh, SNHG1 /// SNORD22 /// SNORD25 /// SNORD26 /// SNORD27 /// SNORD28 /// SNORD29 /// SNORD31 / Fold change (Aza/veh), C12orf56 (ProbeSet 11735607_a_at) / Fold change (ACY-1035/veh), C12orf56 (ProbeSet 11735607_a_at) / Fold change (Aza/veh), FGFR1OP (ProbeSet 11751329_s_at) / Fold change (ACY-1035/veh), FGFR1OP (ProbeSet 11751329_s_at) / Fold change (Aza/veh), VPS36 (ProbeSet 11739960_a_at) / Fold change (ACY-1035/veh), VPS36 (ProbeSet 11739960_a_at) / RFU SYPL1 (11715823_x_at) / Fold change /veh SYPL1 (11715823_x_at) / RFU IGFBP7 (11715501_s_at) / Fold change /veh IGFBP7 (11715501_s_at) / RFU REEP3 (11722064_at) / Fold change /veh REEP3 (11722064_at) / RFU IGLL1 (11728026_x_at) / Fold change /veh IGLL1 (11728026_x_at): dose or concentration left out as unconfirmed
Conditions: MV-4-11 cells, 48 hours

Compound: Nc1ccc(-c2cccs2)cc1NC(=O)c1ccc2c(c1)cc(C1CC1)n2CCN1CCOCC1 [ACY-1035]
- Fold change /veh CDHR5 (11726645_a_at): 1.11
